Test results reported in patent US11098035B2, “Compounds, compositions, and methods for increasing CFTR activity” (Proteostasis Therapeutics, Inc., priority 2014, dated 2021).

Target: T1, ΔF508-CFTR (Homo sapiens, UniProt P13569, DEL508-508)
T1 construct: Primary lung epithelial cells homozygous for the Cystic Fibrosis-causing ΔF508 mutation were differentiated for a minimum of 4 weeks; endogenous in cells; host or cells: primary human bronchial (lung) epithelial cells (hBE) homozygous for ΔF508, differentiated at an air-liquid interface
T1 sequence (P13569 with tags, fused parts or gaps DEL508-508): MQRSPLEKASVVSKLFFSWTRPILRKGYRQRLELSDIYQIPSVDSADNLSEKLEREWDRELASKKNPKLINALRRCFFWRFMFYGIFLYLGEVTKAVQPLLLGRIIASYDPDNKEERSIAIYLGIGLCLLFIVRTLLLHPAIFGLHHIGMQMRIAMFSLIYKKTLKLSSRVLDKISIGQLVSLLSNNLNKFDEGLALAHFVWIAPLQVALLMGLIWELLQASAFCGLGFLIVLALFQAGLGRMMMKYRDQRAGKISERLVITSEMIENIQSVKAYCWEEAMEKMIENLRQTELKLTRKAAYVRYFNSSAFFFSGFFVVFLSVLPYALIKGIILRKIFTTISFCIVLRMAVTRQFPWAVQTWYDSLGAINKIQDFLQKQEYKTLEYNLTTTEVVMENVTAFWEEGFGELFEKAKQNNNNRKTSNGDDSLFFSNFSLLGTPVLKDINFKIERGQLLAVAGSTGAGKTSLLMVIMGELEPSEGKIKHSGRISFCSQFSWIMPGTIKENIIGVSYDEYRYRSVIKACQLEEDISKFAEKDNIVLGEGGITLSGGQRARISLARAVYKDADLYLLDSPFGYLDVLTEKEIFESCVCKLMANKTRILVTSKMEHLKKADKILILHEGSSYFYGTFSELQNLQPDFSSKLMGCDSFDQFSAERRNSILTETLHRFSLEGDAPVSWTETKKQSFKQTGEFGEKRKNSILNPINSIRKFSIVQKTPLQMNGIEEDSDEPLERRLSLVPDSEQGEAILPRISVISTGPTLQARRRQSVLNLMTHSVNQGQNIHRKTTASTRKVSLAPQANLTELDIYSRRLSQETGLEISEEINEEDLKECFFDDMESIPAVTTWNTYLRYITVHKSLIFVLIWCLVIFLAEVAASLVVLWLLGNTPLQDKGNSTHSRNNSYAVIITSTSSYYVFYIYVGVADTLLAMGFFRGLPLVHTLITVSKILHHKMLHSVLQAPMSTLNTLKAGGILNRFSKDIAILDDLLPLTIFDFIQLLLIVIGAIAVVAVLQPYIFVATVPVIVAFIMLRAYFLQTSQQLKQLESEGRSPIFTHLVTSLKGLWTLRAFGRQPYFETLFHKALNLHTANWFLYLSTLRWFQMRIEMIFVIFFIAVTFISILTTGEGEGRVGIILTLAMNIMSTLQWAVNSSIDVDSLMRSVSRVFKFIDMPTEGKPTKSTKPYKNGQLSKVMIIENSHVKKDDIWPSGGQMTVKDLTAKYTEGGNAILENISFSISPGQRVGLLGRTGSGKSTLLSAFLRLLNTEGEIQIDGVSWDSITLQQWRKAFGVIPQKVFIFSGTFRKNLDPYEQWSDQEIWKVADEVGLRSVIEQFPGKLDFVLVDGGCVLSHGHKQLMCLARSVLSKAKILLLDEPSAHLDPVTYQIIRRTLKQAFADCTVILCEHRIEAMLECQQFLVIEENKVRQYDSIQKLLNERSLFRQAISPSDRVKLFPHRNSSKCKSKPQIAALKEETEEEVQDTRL
Assay: hBE Equivalent Current (Ieq) Assay
Assay type: cell-based
Conditions: AUC of equivalent chloride current, primary lung epithelial cells homozygous for ΔF508, 24 h treatment
Method: Primary lung epithelial cells homozygous for the Cystic Fibrosis-causing ΔF508 mutation were differentiated for a minimum of 4 weeks in an air-liquid interface on Costar 24 well HTS filter plates prior to the equivalent current (Ieq) measurements. Cells were apically mucus-washed for 30 minutes 24 h prior to treatment with compounds. The basolateral media was removed and replaced with media containing the compound of interest diluted to its final concentration from DMSO stocks. Treated cells were incubated at 37° C. and 5% CO2 for 24 hours. At the end of the treatment period, the media was changed to the Ieq experimental solution for 30 minutes before the experiment and plates are maintained in a CO2-free incubator during this period. The plates containing the cells were then placed in pre-warmed heating blocks at 36° C.±0.5 for 15 minutes before measurements are taken. The transepithelial voltage (VT) and conductance (GT) were measured using a custom 24 channel current clamp (TECC-24) with 24 well electrode manifold. The Ieq assay measurements were made following additions with standardized time periods: • 1. The baseline VT and GT values were measured for approximately 20 minutes. • 2. Benzamil was added to block ENaC for 15 minutes. • 3. Forskolin plus VX-770 were added to maximally activate ΔF508-CFTR for 27 minutes. • 4. Bumetanide was added to inhibit the NaK2Cl cotransporter and shut-off secretion of chloride.
The activity data captured was the area under the curve (AUC) for the traces of the equivalent chloride current. The AUC was collected from the time of the forskolin/VX-770 addition until the inhibition by bumetanide addition. Correction in response to compound treatment was scored as the increase in the AUC for compound-treated samples over that of vehicle-treated samples.
The results are shown below in Table 2. ++ indicates activity ≥25% run at 10 uM of VX-809 at 1 uM, + indicates activity 10 to <25% run at 10 uM of VX-809 at 1 uM, **indicates activity ≥200% of VX-809 (1 uM) with compound at 10 uM and VX-809 at 1 uM; * indicates activity 100-200% of VX-809 (1 uM) with compound at 10 uM and VX-809 at 1 uM. ^## indicates activity ≥200% of VX-809 (3 uM) with compound at 10 uM and VX-809 at 3 uM; ^# indicates activity 100-200% of VX-809 (3 uM) with compound at 10 uM and VX-809 at 3 uM.

[1] = compound at 10 uM and VX-809 at 1 uM, activity as % of VX-809 (1 uM)
[2] = compound run at 10 uM, activity relative to VX-809 at 1 uM

SMILES	Ieq [1]	Ieq [2]
O=C(NC1CC1)c1cc(-c2ccccc2)co1 [Example 12, N-cyclopropyl-4-phenylfuran-2-carboxamide]	* (* indicates activity 100-200% of VX-809 (1 uM) with compound at 10 uM and VX-809 at 1 uM)	++ (++ indicates activity ≥25% run at 10 uM of VX-809 at 1 uM)
CO[C@H](C)c1nnc([C@H]2C[C@H](NC(=O)c3cc(-c4ccccc4)no3)C2)o1 [Example 14, N-(trans-3-(5-((R)-1-methoxyethyl)-1,3,4-oxadiazol-2-yl)cyclobutyl)-3-phenylisoxazole-5-carboxamide]	* (* indicates activity 100-200% of VX-809 (1 uM) with compound at 10 uM and VX-809 at 1 uM)	
O=C(NCC1CCCO1)c1cc(-c2ccccc2)no1 (stereo not drawn) [Example 2, 3-phenyl-N-((tetrahydrofuran-2-yl)methyl)isoxazole-5-carboxamide]		++ (++ indicates activity ≥25% run at 10 uM of VX-809 at 1 uM)
Cn1nccc1CCCNC(=O)c1cc(-c2ccccc2)no1 [Example 7, N-(3-(1-methyl-1H-pyrazol-5-yl)propyl)-3-phenylisoxazole-5-carboxamide]	* (* indicates activity 100-200% of VX-809 (1 uM) with compound at 10 uM and VX-809 at 1 uM)	++ (++ indicates activity ≥25% run at 10 uM of VX-809 at 1 uM)
C[C@@H](O)c1nnc(C[C@H]2C[C@H](NC(=O)c3cc(-c4ccc(F)cc4)no3)C2)s1 [Example 44, 3-(4-Fluorophenyl)-N-[(1r,3r)-3-([5-[(1R)-1-hydroxyethyl]-1,3,4-thiadiazol-2-yl]methyl)cyclobutyl]-1,2-oxazole-5-carboxamide]	** (**indicates activity ≥200% of VX-809 (1 uM) with compound at 10 uM and VX-809 at 1 uM)	
C[C@@H](OCC1CN(C)C1)c1nnc([C@H]2C[C@H](NC(=O)c3cc(-c4ccccc4)no3)C2)o1 [Example 20, N-(trans-3-(5-((R)-1-((1-methylazetidin-3-yl)methoxy)ethyl)-1,3,4-oxadiazol-2-yl)cyclobutyl)-3-phenylisoxazole-5-carboxamide]	* (* indicates activity 100-200% of VX-809 (1 uM) with compound at 10 uM and VX-809 at 1 uM)	
O=C(NC1CC(c2nnc(C3COC3)o2)C1)c1cc(-c2ccccc2)no1 (stereo not drawn) [Example 22, N-trans-3-(5-(oxetan-3-yl)-1,3,4-oxadiazol-2-yl)cyclobutyl)-3-phenylisoxazole-5-carboxamide]	* (* indicates activity 100-200% of VX-809 (1 uM) with compound at 10 uM and VX-809 at 1 uM)	
CN1CCC(N2CC(c3nnc(C4CC(NC(=O)c5cc(-c6ccccc6)no5)C4)o3)C2)CC1 (stereo not drawn) [Example 24, N-cis-(3-(5-(1-(1-methylpiperidin-4-yl)azetidin-3-yl)-1,3,4-oxadiazol-2-yl)cyclobutyl)-3-phenylisoxazole-5-carboxamide]	* (* indicates activity 100-200% of VX-809 (1 uM) with compound at 10 uM and VX-809 at 1 uM)	
O=C(NCCCn1ccnc1)c1cc(-c2ccccc2)co1 [Example 11, N-(3-(1H-imidazol-1-yl)propyl)-4-phenylfuran-2-carboxamide]		++ (++ indicates activity ≥25% run at 10 uM of VX-809 at 1 uM)
C[C@@H](O)c1nnc(CC2CC(NC(=O)c3cc(-c4ccccc4)no3)C2)s1 (stereo partly drawn) [Example 42, 3-Phenyl-N-[(1r,3r)-3-([5-[(1R)-1-hydroxyethyl]-1,3,4-thiadiazol-2-yl]methyl)cyclobutyl]-1,2-oxazole-5-carboxamide]	* (* indicates activity 100-200% of VX-809 (1 uM) with compound at 10 uM and VX-809 at 1 uM)	
C[C@@H](O)c1nnc(C[C@H]2C[C@@H](NC(=O)c3cc(-c4cccs4)no3)C2)o1 [Example 45, N-[(1s,3s)-3-([5-[(1R)-1-Hydroxyethyl]-1,3,4-oxadiazol-2-yl]methyl)cyclobutyl]-3-(thiophen-2-yl)-1,2-oxazole-5-carboxamide]	* (* indicates activity 100-200% of VX-809 (1 uM) with compound at 10 uM and VX-809 at 1 uM)	
C[C@@H](O)c1nnc([C@H]2C[C@H](NC(=O)c3onc(-c4ccccc4)c3F)C2)o1 [Example 50, 4-Fluoro-3-phenyl-N-[(1r,3r)-3-[5-[(1R)-1-hydroxyethyl]-1,3,4-oxadiazol-2-yl]cyclobutyl]-1,2-oxazole-5-carboxamide]	* (* indicates activity 100-200% of VX-809 (1 uM) with compound at 10 uM and VX-809 at 1 uM)	
O=C(NCCCn1ccnc1)c1cc(-c2ccccc2)no1 [Example 4, N-(3-(1H-imidazol-1-yl)propyl)-3-phenylisoxazole-5-carboxamide]		+ (+ indicates activity 10 to <25% run at 10 uM of VX-809 at 1 uM)
O=C(NCC1CCCO1)c1cc(-c2ccccc2)co1 (stereo not drawn) [Example 9, 4-phenyl-N-((tetrahydrofuran-2-yl)methyl)furan-2-carboxamide]		++ (++ indicates activity ≥25% run at 10 uM of VX-809 at 1 uM)
C[C@H](O)c1cnnn1C[C@H]1C[C@@H](NC(=O)c2cc(-c3ccccc3)no2)C1 [Example 57, 3-Phenyl-N-[(1s,3s)-3-([5-[(1S)-1-hydroxyethyl]-1H-1,2,3-triazol-1-yl]methyl)cyclobutyl]-1,2-oxazole-5-carboxamide]	** (**indicates activity ≥200% of VX-809 (1 uM) with compound at 10 uM and VX-809 at 1 uM)	
C[C@@H](O)c1nnc(CC2CC(NC(=O)c3cc(-c4ccccc4)no3)C2)o1 (stereo partly drawn) [Example 37, N-((1S,3s)-3-((5-((R)-1-hydroxyethyl)-1,3,4-oxadiazol-2-yl)methyl)cyclobutyl)-3-phenylisoxazole-5-carboxamide]	** (**indicates activity ≥200% of VX-809 (1 uM) with compound at 10 uM and VX-809 at 1 uM)	
O=C(NCCN1CCOCC1)c1cc(-c2ccccc2)no1 [Example 3, N-(2-morpholinoethyl)-3-phenylisoxazole-5-carboxamide]		++ (++ indicates activity ≥25% run at 10 uM of VX-809 at 1 uM)
O=C(NCCN1CCOCC1)c1cc(-c2ccccc2)co1 [Example 10, N-(2-morpholinoethyl)-4-phenylfuran-2-carboxamide]		+ (+ indicates activity 10 to <25% run at 10 uM of VX-809 at 1 uM)
COCCNC(=O)c1cc(-c2ccccc2)no1 [Example 1, N-(2-methoxyethyl)-3-phenylisoxazole-5-carboxamide]		++ (++ indicates activity ≥25% run at 10 uM of VX-809 at 1 uM)
CC(OC1CCC1)c1nnc([C@H]2C[C@H](NC(=O)c3cc(-c4ccccc4)no3)C2)o1 (relative stereo) [Example 17, N-(trans-3-(5-(1-cyclobutoxyethyl)-1,3,4-oxadiazol-2-yl)cyclobutyl)-3-phenylisoxazole-5-carboxamide]	* (* indicates activity 100-200% of VX-809 (1 uM) with compound at 10 uM and VX-809 at 1 uM)	
C[C@@H](O)c1nnc(CC2CC(NC(=O)c3cc(-c4ccc(F)cc4)no3)C2)o1 (stereo partly drawn) [Example 40, 3-(4-Fluorophenyl)-N-[(1r,3r)-3-([5-[(1R)-1-hydroxyethyl]-1,3,4-oxadiazol-2-yl]methyl)cyclobutyl]-1,2-oxazole-5-carboxamide]	** (**indicates activity ≥200% of VX-809 (1 uM) with compound at 10 uM and VX-809 at 1 uM)	
C[C@@H](O)c1nnc(C[C@H]2C[C@@H](NC(=O)c3cc(-c4ccc(F)cc4)no3)C2)s1 [Example 43, 3-(4-Fluorophenyl)-N-[(1s,3s)-3-([5-[(1R)-1-hydroxyethyl]-1,3,4-thiadiazol-2-yl]methyl)cyclobutyl]-1,2-oxazole-5-carboxamide]	** (**indicates activity ≥200% of VX-809 (1 uM) with compound at 10 uM and VX-809 at 1 uM)	
